In one test the test system is A. fumigatus NRRL 163. Briefly: MIC, agar incorporation method. It counts as cell-based. The settings on record: Aspergillus fumigatus, NRRL163, NRRL 163; 32° C., 48-72 hours; read-out: Minimal Inhibitory Concentration. Put shortly: (§1)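 Eugon agar incorporation; compound 100–3.1 mcg/ml (to 0.125 in some tests), two-fold steps, DMF vehicle. Inoculum 1,000,000 cells or spores/ml, one drop per plate, 32° C. Visual MIC: bacteria at 24 h, dermatophytes 48–72 h.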

In the next test the test system is A. fumigatus NRRL 165. As to the kind of experiment: MIC, agar incorporation method. The class given is cell-based. As to conditions: Aspergillus fumigatus, NRRL165, 32° C., 48-72 hours, read-out: Minimal Inhibitory Concentration. Put shortly:
as §1

For test [1], the system named is Aspergillus niger ATCC 16404. As to the kind of experiment: MIC, agar incorporation method. It counts as cell-based. As to conditions: ATCC16404, 32° C., 48-72 hours, read-out: Minimal Inhibitory Concentration. Put shortly: as §1
A further test relates to C. albicans NRRL Y-477. As to the kind of experiment: MIC, agar incorporation method. It counts as cell-based. The settings on record: Candida albicans, NRRLY477, 32° C., 24 hours, read-out: Minimal Inhibitory Concentration. Put shortly: as §1
The next test concerns C. guillermondii VM 42. As to the kind of experiment: MIC, agar incorporation method. As to conditions: 32° C., 24 hours; read-out: Minimal Inhibitory Concentration. It counts as cell-based. An outline of the steps:
as §1

The next test relates to C. krusei VM 29B. Briefly: MIC, agar incorporation method. The class given is cell-based. As to conditions: Pichia kudriavzevii, VM29B; 32° C., 24 hours; read-out: Minimal Inhibitory Concentration. An outline of the steps:
as §1

Another test has as its system C. tropicalis NRRL Y1410. Briefly: MIC, agar incorporation method. As to conditions: Candida tropicalis, NRRLY1410; 32° C., 24 hours; read-out: Minimal Inhibitory Concentration. It counts as cell-based. An outline of the steps:
as §1

Test [2] concerns Candida albicans ATCC 10231. As to the kind of experiment: MIC, agar incorporation method. It counts as cell-based. As to conditions: ATCC10231, C. albicans ATCC 10231, 32° C., 24 hours, read-out: Minimal Inhibitory Concentration. Put shortly: as §1
The subject of test [3] is Escherichia coli ATCC 8739. Briefly: MIC, agar incorporation method. It counts as cell-based. The settings on record: ATCC8739, 32° C., 24 hours, read-out: Minimal Inhibitory Concentration. Put shortly: as §1
The subject of test [4] is Microsporum gypseum ATCC 14683. Briefly: MIC, agar incorporation method. As to conditions: Nannizzia gypsea, ATCC14683, 32° C., 48-72 hours; read-out: Minimal Inhibitory Concentration. It counts as cell-based. An outline of the steps:
as §1

The test system of test [5] is Proteus vulgaris NRRL B123. As to the kind of experiment: MIC, agar incorporation method. The class given is cell-based. The settings on record: NRRLB123, 32° C., 24 hours, read-out: Minimal Inhibitory Concentration. An outline of the steps:
as §1

Test [6] relates to Pseudomonas aeruginosa ATCC 14502. Briefly: MIC, agar incorporation method. It counts as cell-based. The settings on record: ATCC14502, 32° C., 24 hours, read-out: Minimal Inhibitory Concentration. An outline of the steps: as §1
Test [7] relates to Sarcina subflava ATCC 7468. Briefly: MIC, agar incorporation method. The class given is cell-based. As to conditions: ATCC7468, 32° C., 24 hours, read-out: Minimal Inhibitory Concentration. Put shortly:
as §1

For test [8], the system named is Staphylococcus aureus ATCC 6538. As to the kind of experiment: MIC, agar incorporation method. The settings on record: Staphylococcus aureus, ATCC6538; S. aureus ATCC 6538; 32° C., 24 hours; read-out: Minimal Inhibitory Concentration. The class given is cell-based. Put shortly:
as §1

In test [9] the test system is Streptococcus faecalis ATCC 10541. Briefly: MIC, agar incorporation method. The class given is cell-based. The settings on record: Enterococcus faecalis, ATCC10541; 32° C., 24 hours; read-out: Minimal Inhibitory Concentration. Put shortly:
as §1

The subject of a further test is T. mentagrophytes CDC. As to the kind of experiment: MIC, agar incorporation method. The settings on record: Trichophyton mentagrophytes, 32° C., 48-72 hours, read-out: Minimal Inhibitory Concentration. The class given is cell-based. Put shortly:
as §1

A further test relates to T. mentagrophytes TM-2. As to the kind of experiment: MIC, agar incorporation method. The class given is cell-based. As to conditions: Trichophyton mentagrophytes, TM2, 32° C., 48-72 hours, read-out: Minimal Inhibitory Concentration. Put shortly: as §1
The subject of a further test is T. rubrum ATCC 10218. Briefly: MIC, agar incorporation method. The settings on record: Trichophyton rubrum, ATCC10218; 32° C., 48-72 hours; read-out: Minimal Inhibitory Concentration. It counts as cell-based. An outline of the steps:
as §1

In test [10] the test system is Trichophyton mentagrophytes ATCC 4807. As to the kind of experiment: MIC, agar incorporation method. The settings on record: ATCC4807, 32° C., 48-72 hours, read-out: Minimal Inhibitory Concentration. It counts as cell-based. Put shortly:
as §1

The next test has as its system S. aureus NRRL B2747. Briefly: MIC, agar incorporation method. The class given is cell-based, Staphylococcus aureus. As to conditions: Staphylococcus aureus, NRRLB2747, 32° C., 24 hours, read-out: Minimal Inhibitory Concentration. Put shortly:
as §1

Test [11] concerns Clostridium acetobutylicum ATCC 824. As to the kind of experiment: MIC, agar incorporation method, anaerobic. The class given is cell-based. As to conditions: ATCC824, 48 h, 48 hours at 35° C., GasPak Anaerobic Jar, read-out: Minimal Inhibitory Concentration. On the procedure:
(§2) The compounds of the present invention were tested for their ability to inhibit the growth of microorganisms by in vitro tests. Generally the in vitro tests involve growing representative microorganisms under conditions favorable to such growth and measuring the effectiveness of one or more compounds in inhibiting or destroying the growth of the microorganisms. The microorganisms used include representative bacteria, fungi and yeasts.
(§3) A representative selection of the test microorganisms were cultured in a nutrient broth, such as, for example, Eugon, commercially available from Difco Laboratories, Detroit, Michigan. Bacteria and Candida species were cultured for 24 hours at 32°-37° C. and fungi were cultured for approximately one week at 32° C. Inocula were prepared by suspending the growth or spores from a slant culture in sufficient sterile normal (0.9 percent) saline or Eugon broth, to yield cell or spore concentrations of 1,000,000 cells per milliliter. Anaerobic bacteria were cultured for 48-72 hours at 32°-37° C. in a thioglycollate containing medium, for example, Fluid Thioglycollate medium or NIH thioglycollate broth, commercially available from Difco Laboratories.
(§4) The compounds of the present invention were tested for activity against bacteria, yeasts and fungi by the agar incorporation method described below. MA 1347, 3-(dimethylaminomethyl)flavanone (disclosed in U.S. Pat. No. 3,753,985) was used as a comparative standard along with controls for each solvent system used.
(§5) A series of agar plates containing two-fold dilutions of each compound to be tested, ranging in concentration from 100 to 3.1 mcg/ml of agar medium was prepared. Aliquots of each concentration (100, 50, 25, 12.5, 6.2, and 3.1) prepared in N,N-dimethylformamide or 50 percent aqueous DMF were added to liquid Eugon agar at 48° C. (one part test solution to 100 parts agar). In some cases, tests with further dilutions to 0.125 mcg/ml were conducted. The agar medium, containing the 3-methylene flavanone or chromanone compound to be tested, was then dispensed into petri dishes and allowed to solidify. The solidified plates were kept overnight at room temperatures to dry the surface of the agar.
(§6) The agar plates were then inoculated with a drop of the standardized cell or spore suspension. Inoculated plates were incubated at 32° C. The inhibition end-point or minimum inhibitory concentration (MIC) shown in Table D represent the lowest concentration of test compound which inhibited the growth of the microorganism. Visual determination of growth inhibition was used. Bacteria and yeast end-points were determined after 24 hours incubation; molds, dermatophytes and anaerobes after 48-72 hours incubation. MIC values shown as ranges represent the extremes found in repeat assays. Virtually all such values were written plus or minus one dilution, the accepted variation of a two-fold dilution assay.
(§7) *Anaerobic: 48 hours incubation at 35° C. GasPak Anaerobic Jar

Test [12] deals with Propionobacterium acnes ATCC 6919. As to the kind of experiment: MIC, agar incorporation method, anaerobic. The class given is cell-based. As to conditions: 48 hours at 35° C., GasPak Anaerobic Jar, read-out: Minimal Inhibitory Concentration. On the procedure:
as §2, §3, §4, §5, §6, §7

Drawing on patent US4241069A, “3-Methylene flavanones and 3-methylene chromanones” (Miles Laboratories, Inc., priority 1979, dated 1980), this text covers MIC for 2 compounds.

≈ marks a conversion by molar mass, not a printed value.

Regarding `C=C1C(=O)c2ccccc2OC1c1ccc(Cl)cc1` (centres unmarked) [Ex. 3, 4'-chloro-3-methylene flavanone], the MIC in the test on A. fumigatus NRRL 163 amounted to 6.2 µg/mL (≈ 22.9 µM); with A. fumigatus NRRL 165, 50 µg/mL (≈ 185 µM); in [1] it was 25 µg/mL (≈ 92.3 µM); in the test with C. albicans NRRL Y-477 it was 12.5 µg/mL (≈ 46.2 µM); in the test with C. guillermondii VM 42, 25 µg/mL (≈ 92.3 µM); in the test on C. krusei VM 29B it was 12.5 µg/mL (≈ 46.2 µM). Further, the MIC with C. tropicalis NRRL Y1410 was 25 µg/mL (≈ 92.3 µM); in test [2], 12.5 µg/mL (≈ 46.2 µM); in [3], over 100 µg/mL; in test [4], 6.2 µg/mL (≈ 22.9 µM); in test [5], over 100 µg/mL; in test [6], over 100 µg/mL. For the same compound, the MIC in test [7] was 6.2 µg/mL (≈ 22.9 µM); in test [8] it was at most 3.1 µg/mL; in test [9], 25 µg/mL (≈ 92.3 µM); in the test with T. mentagrophytes CDC, 6.2 µg/mL (≈ 22.9 µM); in the test on T. mentagrophytes TM-2 it was 6.2 µg/mL (≈ 22.9 µM); in the test on T. rubrum ATCC 10218, at most 3.1 µg/mL. The MIC in test [10] was 6.2 µg/mL (≈ 22.9 µM); with S. aureus NRRL B2747, 3.1 µg/mL (≈ 11.5 µM); in test [11] it was at most 100 µg/mL; in test [12] it was at most 100 µg/mL.
As for `C=C1C(=O)c2ccccc2OC1c1ccc([N+](=O)[O-])cc1` (centres unmarked) [Ex. 10, 4'-nitro-3-methylene flavanone], the MIC in the test on A. fumigatus NRRL 163 stood at 12.5 µg/mL (≈ 44.4 µM); with A. fumigatus NRRL 165, 100 µg/mL (≈ 356 µM); in test [1], 50 µg/mL (≈ 178 µM); in the test with C. albicans NRRL Y-477, 25 µg/mL (≈ 88.9 µM); in the test with C. guillermondii VM 42 it was 50 µg/mL (≈ 178 µM); in the test on C. krusei VM 29B, 25 µg/mL (≈ 88.9 µM). In addition, the MIC with C. tropicalis NRRL Y1410 was 50 µg/mL (≈ 178 µM); in test [2] it was 25 µg/mL (≈ 88.9 µM); in [3] it was over 100 µg/mL; in test [4], 6.2 µg/mL (≈ 22 µM); in test [5] it was over 100 µg/mL; in test [6] it was over 100 µg/mL. Besides, the MIC in test [7] is 12.5 µg/mL (≈ 44.4 µM); in test [8], at most 3.1 µg/mL; in test [9] it was 50 µg/mL (≈ 178 µM); in the test on T. mentagrophytes CDC, 6.2 µg/mL (≈ 22 µM); in the test with T. mentagrophytes TM-2, 6.2 µg/mL (≈ 22 µM); in the test on T. rubrum ATCC 10218, at most 3.1 µg/mL. Further, the MIC in [10] is 6.2 µg/mL (≈ 22 µM); with S. aureus NRRL B2747 it was 6.2 µg/mL (≈ 22 µM); in [11] it was at most 100 µg/mL; in test [12], at most 100 µg/mL.
